Test system: KCNQ channel protein
Test: 1D 13C half filtered 1H-1H NMR NOE fragment screening
Type: binding, rat
Settings: example of FIG. 3; mono- or di-methylated fragment A of DMP543; KCNQ protein solution
Excerpt: The above-described NMR fragment assembly methods may be utilized to identify ligands for the KCNQ potassium channel, which can be affinity-purified from rat brain extracts using an affinity column with ligands such as DMP543, XE991 or linopirdine, covalently attached to a resin. The KCNQ channel is a membrane-bound protein and is considered large for NMR studies. […] Indeed, such methods have been recently applied to G-protein coupled receptors by using difference spectra in order to remove potential spectral artifacts from NMR experiments from chemical fragments that penetrate the lipid layer (Assadi-Porter et al, 2008). An important variation to that procedure (and inter-ligand NOE studies, as in FIG. 1), which is employed as part of the presently disclosed methods is to chemically place a ^13C labeled methyl group as an NMR reported group (the “NMR probe”), analogous to the antenna in FIG. 1. […] These experiments can be done on a 400 MHz, 500 MHz, 600 MHz or higher field NMR spectrometer, ideally equipped with a cryoprobe (and cryocooled ^13C preamp). […]
As a control in these experiments, the measured NOE or saturation transfer signal might be of the sample (perhaps a tissue extract) that has had the protein target removed (KCNQ in this case), which could be done using an affinity column. […]

## Cc1ccnc(F)c1 [2-fluoro-4-methylpyridine]
  NOE signal between 13CH3 group of fragment A and methyl group of fragment B (binding within 5 angstroms): can show an NOE signal
